Key:
[1] = system: spontaneously hypertensive rats; assay: Hypotensive activity in spontaneously hypertensive rats (Experiment 1, tail artery plethysmography); type: in vivo; conditions: maximum reduction after administration versus pressure before administration; oral, 3 mg/100 g body weight, suspended in 0.3% (W/V) CMC; SHR 15 weeks old, five rats per group
Method: This experiment was conducted according to the procedure described in "Spontaneously Hypertensive Rats (SHR) guidelines for Breeding, Care and Use" (published by SHR Conference) (1976) p.ll.
Five spontaneously hypertensive rats (15 weeks old, 180 mmHg or more in blood pressure) were used as one group. A test compound was suspended in 0.3% (W/V) CMC aqueous solution in a concentration of 3 mg/ml, and orally administered to the rats in a dose of 3 mg/100 g body weight. Changes in blood pressure were measured according to the method of tail artery plethysmography (see the literature cited above). The maximum reduction (mmHg) in blood pressure after the administration on the basis of the pressure before the administration is shown in Table 6.

[2] = Acute oral toxicity in mice (Experiment 2, deaths counted after 7 days); conditions: mouse, in vivo, in aqueous physiological sodium chloride, doses 300 mg/kg or further 200, 100 or 1000 mg/kg, observation for 7 days, three or four mice per group, read-out: Dose of half being died
Method: Three or four male dd-strain mice (weight 18-20g) were used as one group.
Each of the compounds was added to aqueous physiological sodium chloride, and the mixture was orally administered to the mice in a dose of 300 mg/kg or further 200, 100 or 1000 mg/kg. After the observation for 7 days, the number of deaths were counted.

Structure (SMILES) | Reduction in blood pressure (mmHg) [1] [mmHg] | LD50 at 168 h [2] [mg/kg]
O=C1Nc2ccccc2C2(CCN(CC(O)c3ccccc3)CC2)O1 (stereo not shown) [Compound 2, l'-(2-phenyl-2-hydroxyethyl)-(2-oxo-3,4-dihydro-2H-1,3-benzoxazine-4-spiro-4'-piperidine)] | 46.3 | > 300
COc1ccc([C@@H](O)[C@H](C)N2CCC3(CC2)OC(=O)Nc2ccccc23)cc1OC (relative stereo) [Compound 26, erythro-l'-[2-(3,4-dimethoxyphenyl)-2-hydroxy-1-methylethyl]-(2-oxo-3,4-dihydro-2H-1,3-benzo-xazine-4-spiro-4'-piperidine)] | 66 | 
O=C1Nc2ccc(Cl)cc2C2(CCN(CC(O)c3ccccc3)CC2)O1 (stereo not shown) [Compound 6, l'-(2-phenyl-2-hydroxyethyl)-(6-chloro-2-oxo-3,4-dihydro-2H-1,3-benzoxazine-4-spiro-4'-piperidine)] | 66.3 | 
CN1C(=O)Nc2ccccc2C12CCN(CC(O)c1ccc(Cl)cc1)CC2 (stereo not shown) [Compound 10] | 20.0 | 
O=C1Nc2ccc(Cl)cc2C2(CCN(CC(O)c3ccc(Cl)cc3)CC2)O1 (stereo not shown) [Compound 8, l'-[2-(4-chlorophenyl)-2-hydroxyethyl]-(6-chloro-2-oxo-3,4-dihydro-2H-1,3-benzoxazine-4-spiro-4'-piperidine)] | 67.5 | > 300
COc1cc(C(O)CN2CCC3(CC2)OC(=O)Nc2ccccc23)cc(OC)c1OC (stereo not shown) [Compound 32, l'-[2-(3,4,5-trimethoxyphenyl)-2-hydroxyethyl]-(2-oxo-3,4-dihydro-2H-1,3-benzoxazine-4-spiro-4'-piperidine)] | 79 | 
O=C1Nc2ccccc2C2(CCN(CC(O)c3ccc(Cl)cc3)CC2)O1 (stereo not shown) [Compound 9] | 43.7 | > 300
COc1ccc(C(O)CN2CCC3(CC2)c2ccccc2NC(=O)N3C)cc1OC (stereo not shown) [Compound 12, l'-[2-(3,4-dimethoxyphenyl)-2-hydroxyethyl]-[3-methyl-3,4-dihydro-2(1H)-quinazolinone-4-spiro-4'-piperidine]] | 35.0 | 100 to 300
CN1C(=O)Nc2ccccc2C12CCN(CC(O)c1ccccc1)CC2 (stereo not shown) [Compound 11, l'-(2-phenyl-2-hydroxyethyl)-(3-methyl-3,4-dihydro-2(lH)-quinazolinone-4-spiro-4'-piperidine)] | 47.5 | 200
COc1cc(OC)c([C@@H](O)[C@H](C)N2CCC3(CC2)OC(=O)Nc2ccccc23)cc1OC (relative stereo) [Compound 31, erythro-l'-[2-(3,4,6-trimethoxyphenyl)-2-hydroxy-1-methylethyl]-(2-oxo-3,4-dihydro-2H-1,3-benzo-xazine-4-spiro-4'-piperidine)] | 75 | 
COc1ccc([C@H](O)[C@H](C)N2CCC3(CC2)OC(=O)Nc2ccccc23)cc1OC (relative stereo) [Compound 25, threo-l'-[2-(3,4-dimethoxyphenyl)-2-hydroxy-1-methylethyl]-(2-oxo-3,4-dihydro-2H-1,3-benzoxazine-4-spiro-4'-piperidine)] | 90 | 
COc1cc([C@H](O)[C@H](C)N2CCC3(CC2)OC(=O)Nc2ccccc23)cc(OC)c1OC (relative stereo) [Compound 28] | 70 | 
COc1ccc(C(O)CN2CCC3(CC2)OC(=O)Nc2ccccc23)cc1OC (stereo not shown) [Compound 4, l'-[2-(3,4-dimethoxyphenyl)-2-hydroxyethyl]-(2-oxo-3,4-dihydro-2H-1,3-benzoxazine-4-spiro-4'-piperidine)] | 95.0 | > 1000

Source: EP0070171A1, “Novel piperidine derivatives, processes for preparation thereof and pharmaceutical compositions containing same” (KYOWA HAKKO KOGYO CO., LTD, priority 1981, dated 1983)
